# In a melting point compilation (Tetko et al.; mined from patent text by program, amines drawn as free bases though some values may be those of a salt):
row,melting point,SMILES
1,173 to 175 °C,Nc1ccc2ncnc(Nc3ccc(OCc4ccccc4)cc3)c2c1
2,118 to 120 °C,C[C@@H](O)[C@H](NC(=O)Cc1ccccc1)C(=O)O
3,87.5 to 88 °C,O=C(N1CC1)C(F)(F)C(O)(Cn1cncn1)c1ccc(F)cc1F (stereo not drawn)
4,153 to 155 °C,Cc1sc(-c2ccc(OC(F)(F)F)cc2)cc1-c1nc(-c2c(F)cccc2Cl)nn1C
5,317 to 320 °C,Cc1cc(C(=O)O)cc(C)c1C(O)c1cc(-n2ccnc2)ccc1Cl (stereo not drawn)
6,180 to 182 °C,O=P1(c2ccc(Cl)cc2)c2ccccc2CN1c1ccccc1 (stereo not drawn)
7,234 to 236 °C,COc1cccc2c1nc(C(F)F)n2-c1nc(Nc2ccncn2)nc(N2CCOCC2)n1
8,356 °C,c1ccc2c(c1)c1ccccc1c1cc(-c3ccc4c5ccccc5c5ccccc5c4c3)ccc21
9,244 to 246 °C,Cn1c(CN2C(=O)C3(COc4cc5c(cc43)CCO5)c3ccccc32)nc2ccccc21 (stereo not drawn)
10,> 300 °C,Cc1nc(N)c(O)c(=O)[nH]1
11,75 to 77 °C,COC(=O)c1ccc2c(c1)N(C(C)C)C(=O)C(C)(C)O2
12,139 to 141 °C,Cc1ccnc2c([N+](=O)[O-])cc(F)cc12
13,206 °C,CCN(C)CCOc1ccc(/C=C/C(=O)O)cc1
14,261 to 262 °C,Nc1ccc2c(=O)n(Cc3ccccc3)c(=O)n(-c3ccccc3)c2n1
15,233 to 235 °C,COC(=O)Nc1coc2cc(NS(C)(=O)=O)c(Oc3ccccc3)cc2c1=O
16,178 °C,COCCC(=O)N[C@H]1CC[C@H](CCN2CCN(c3nc(C)cc4c3CCO4)CC2)CC1
17,82 to 84 °C,CC(C)CC(N)C(=O)NC(=O)N(CCCl)N=O (racemic)
18,66 °C,C=CC(=O)OCC(=O)OCCCCCCOC(=O)COC(=O)C=C
19,216 to 218 °C,Cc1ccc(C=NNc2ccc(S(N)(=O)=O)cc2)cc1
20,74 to 76 °C,CCOC(=O)CCc1ccc2c(CCC(=O)OCC)c(O)ccc2n1
21,150 °C,CN(C)C(=O)C1(N2CCCC2)CCNCC1
22,176 °C,OCc1cc2c(F)cccc2nc1Cl
23,78.5 to 80 °C,CC1=CC(N(C)Cc2ccccc2)C(O)C(C)(C)CC1=O (stereo not drawn)
24,196 to 198 °C,O=C(Nc1cc(C(F)(F)F)cc(C(F)(F)F)c1)c1ccccc1O

row,melting point,SMILES
1,155 to 158 °C,NC(=O)c1cc(OCCNCC(O)COc2ccc(-c3nc(C(F)(F)F)c[nH]3)cc2)ccc1O (stereo not drawn)
2,201 to 202 °C,O=C(Nc1nccs1)C(CC1CCCC1)c1ccc(Br)cc1 (stereo not drawn)
3,308 to 310 °C,O=C1CCC(N2Cc3c(OCc4ccc(S(=O)(=O)N5CCOCC5)cc4)cccc3C2=O)C(=O)N1 (stereo not drawn)
4,253 to 257 °C,O=C1NC(=O)c2c1c(-c1ccccc1Cl)cc1[nH]c3ccc(CCO)cc3c21
5,214 to 217 °C,CCOC(=O)c1nc(-c2ccc([N+](=O)[O-])cc2)[nH]c1-c1ccc(OCC)cc1
6,142 to 144 °C,CCOc1nc2cc(C)nn2c2c1cnc1c2cnn1CC
7,104 °C,CON(C)C(=O)Nc1ccc(CC#N)cc1Cl
8,271 to 273 °C,CCOC(=O)c1cn(CCF)c2nc(SCC)c(F)cc2c1=O
9,78 to 80 °C,COC(=O)C1CSC(c2cc3ccccc3n2C)=N1 (stereo not drawn)
10,206 °C,CC1(C)CC2(CC(C)(C)c3ccc(Oc4cccc(N)c4)cc32)c2cc(Oc3cccc(N)c3)ccc21
11,171 to 173 °C,CNc1cc(S(=O)(=O)c2ccc(N)cc2)cc(Br)n1
12,120 to 122 °C,CCS(=O)(=O)N[C@@H]1CCCC[C@H]1OCC(=O)O (relative stereo)
13,112 °C,COc1ccc(N(C)CCCOc2ccc3ccccc3c2)cc1
14,133 to 134 °C,COC1CC(NC(=O)C(F)(F)F)C(C)(O)C(C)O1 (stereo not drawn)
15,203 to 205 °C,Cc1ccc(C2c3c(C)c(N4CCN(c5ccc([N+](=O)[O-])cc5)CC4)c(C)c(C)c3OC2(C)C)cc1 (stereo not drawn)
16,95 to 97 °C,CCOC(=O)Cc1c(C)n(Cc2cccc(C(F)(F)F)c2)c2ccc(OC)cc12
17,232 to 236 °C,CC(C)c1nc2ccccn2c(=O)c1-c1ccc(NC2CCN(C(=O)OC(C)(C)C)C2)cc1 (stereo not drawn)
18,139 to 140 °C,NC(=O)c1cc(Cl)cc(-c2cccc3cc(Cc4cccc(C(F)(F)F)c4)sc23)c1
19,158 to 159 °C,Cc1oc(-c2ccco2)nc1COc1ccc(COc2nn(-c3ccccc3)cc2C#N)cc1
20,81 to 82 °C,CCCCCCC(C)OC(=O)c1ccc(-c2ccc(-c3ccc(C(=O)OC(C)CCCCCC)cc3)cc2)cc1 (stereo not drawn)
21,175 to 177 °C,O=C(O)C(c1ccccc1)N1C(=O)c2ccccc2C1=O (stereo not drawn)
22,219 to 221 °C,CC(C)(C)CC(C)(C)c1cc(-n2nc3ccc(C(=O)O)cc3n2)c(O)c(C(C)(C)c2ccccc2)c1
23,142 to 143 °C,Nc1nccnc1-c1cc(Cl)cc(Cl)c1Cl
24,123 to 125 °C,O=C1c2ccccc2C(=O)N1CC1CC1c1cccc2nnsc12 (stereo not drawn)

row,melting point,SMILES
1,102 to 104 °C,OCC(O)Cc1nccn1CCCc1cccc(OCc2coc(/C=C/c3ccc(C(F)(F)F)cc3)n2)c1 (stereo not drawn)
2,146 to 147 °C,N#Cc1ccc(-c2nc(CCl)co2)s1
3,186 to 187 °C,CCOC(=O)c1cn(C2CC2)c2c(F)c(-c3cc(C)nc(C)c3)c(F)cc2c1=O
4,90 to 95 °C,CCOC(=O)C1(C(=O)OCC)CC(c2ccc(Cl)cc2[N+](=O)[O-])=CN1C(C)=O
5,84 to 114 °C,CCCCCN1C(=O)C(CCC(=O)OC)(NC(=O)c2ccc(Cl)c(Cl)c2)c2ccccc21 (stereo not drawn)
6,124 to 130 °C,CC(C)C(OC(=O)NC(C)(Cc1ccccc1)C(=O)NC(CO)c1ccccc1)c1ccccc1 (stereo not drawn)
7,226 to 227 °C,CC1(C)Oc2ccc(C#N)cc2[C@@H](NC(=O)Nc2ccccc2)[C@@H]1O (relative stereo)
8,85 to 86 °C,CCOC(=O)c1ccc(N2CCN(C(=O)CCc3cc(C(C)(C)C)c(O)c(C(C)(C)C)c3)CC2)cc1
9,92 to 94 °C,CN(C)CCCN1c2ccccc2C(c2ccccc2F)=Nc2cccnc21
10,60 to 65 °C,Cl[Si](Cl)(Cl)Cc1ccc(-c2ccccc2)cc1
11,126 to 128 °C,O=C(c1ccc(Cl)cc1)C(Cn1cncn1)c1ccc(Cl)cc1 (stereo not drawn)
12,173 to 175 °C,CN1CCN(c2cccc3ccc(NC(=O)c4ccccc4)cc23)CC1
13,220 °C,CC1(C)CC(NC(=O)c2ccc(-c3cc4cc(Cl)c(Cl)cc4[nH]3)c(OCc3ccccc3)c2)CC(C)(C)N1
14,274 to 275 °C,CS(=O)(=O)c1ccc(-c2coc3ccc(-c4nnc(N)o4)cc23)cc1
15,221 °C,Cc1c(N2CCC(N(C)C)C(C)C2)c(F)cc2c(=O)c(C(=O)O)cn(C3CC3)c12 (stereo not drawn)
16,135 to 136 °C,CCOC(=O)c1cc(NC(C)=O)ccc1O
17,130 to 131 °C,O=[N+]([O-])c1ccc(CN2CCC(C(c3ccccc3)c3ccccc3)CC2)cc1
18,224 to 226 °C,NC(=O)c1ncn(C2OC(CO)C(O)C2O)c1C(N)=O (stereo not drawn)
19,158 °C,CN(C)c1nc(NCc2ccc(NC(=O)c3ccc(F)cc3)cc2)c2ccc(CO)cc2n1
20,157 to 158 °C,CNC(=NC#N)NCCSCc1csc(NC(=S)NCC(F)(F)F)n1
21,99 to 101 °C,Cc1cc(NCc2ccc(Cl)cc2)nc(SCC#N)n1
22,116 °C,CNC(=S)N(C)c1ccc(OC)nc1
23,278 °C,O=c1[nH][nH]c(=O)c2c(O)c3ccc(Br)cc3nc12
24,111 to 112 °C,COc1cccc2c1CCC21OC(=O)c2ccccc21 (stereo not drawn)

row,melting point,SMILES
1,214 °C,CCCCc1cn(Cc2ccc(-c3ccccc3C(=O)O)cc2)c2ccccc2c1=O
2,190 to 192 °C,O=C(O)C(Sc1nc2cc(Cl)ccc2s1)c1ccccc1 (stereo not drawn)
3,211 to 213 °C,CNC(=O)Nc1ccc(S(N)(=O)=O)cc1
4,191 to 193 °C,N#Cc1ccc2c(c1)ncn2-c1cccc(-c2cccnc2)c1
5,108 to 110 °C,CS(=O)(=O)c1ccc(-n2nc(C(F)(F)F)cc2-c2ccc(-c3cscn3)c(Cl)c2)cc1F
6,125 to 126 °C,CC(=O)Nc1ccc(C(=O)Nc2ccccc2NC(=O)CNC(=O)OC(C)(C)C)cc1
7,185 to 187 °C,COc1ccc(Oc2c(OC)cc(N)c3nccc(C)c23)cc1
8,174 to 176 °C,C#Cc1c(N)nc(-c2ccc(Cl)c(OC)c2F)nc1C(=O)OC
9,168 to 169 °C,COc1ccc(-c2cc3cc(OC)c(OC)cc3c(C)n2)cc1OC
10,145 to 146 °C,COCCc1nc2c(N)nc3ccccc3c2n1CCOCCN(C)S(C)(=O)=O
11,154 to 156 °C,CC1CCC(C(C)C)C(C(C#Cc2ccc(Cc3ccc(F)cc3)o2)N(O)C(N)=O)C1 (stereo not drawn)
12,199 to 201 °C,O=C1NC(=O)C(=Cc2ccc3c(c2)CCC(Cc2ccccc2)N3Cc2ccccc2)S1 (stereo not drawn)
13,238 to 242 °C,CS(=O)(=O)Nn1c(=O)[nH]c2cc(C(F)(F)F)c(N3CCC(=O)CC3)cc2c1=O
14,174 °C,CN(C)c1ccc(C(N)=NNc2ccc([N+](=O)[O-])cc2)cc1
15,169 to 171 °C,C=C1C(=O)N(CC(=O)O)C(=O)N1Cc1cccc([N+](=O)[O-])c1
16,173 to 176 °C,CC(C)=Nn1c(C(F)(F)F)cc(=O)n(-c2cc(Oc3ccccc3[N+](=O)[O-])c(Cl)cc2F)c1=O
17,133 to 134 °C,O=C(c1ccc(SC2SCC(O)C(O)C2O)cc1)C(F)(F)F (stereo not drawn)
18,43 to 45 °C,CCCC[C@H](NC(=O)OC(C)(C)C)C(=O)CSCc1ccsc1
19,245 to 250 °C,CC(C)[C@H](NCCC#N)C(=O)O
20,126 to 127 °C,COc1ccc(C(C)C)c(NC(=O)CN2CCN(CCCSc3nc4c(C)c(Cl)cc(C(C)C)c4o3)CC2)c1C(C)C
21,110 to 112 °C,CCOC(=O)c1sc2cc(CO)ccc2c1Sc1cccc(OC)c1

row,SMILES,melting point
1,CN1C(=O)[C@H](NC(=O)CNc2ccccc2Cl)N=C(c2ccccc2)c2ccccc21,222 to 224 °C
2,CCOC(=O)c1ccc(C=CC2(O)CN3CCC2CC3)cc1 (stereo not drawn),160 to 162 °C
3,CC(N)Cc1ccc(OCC(=O)NCCc2ccc(O)cc2)cc1 (stereo not drawn),160 to 163 °C
4,Clc1ccc2c(C3CCNCC3)n[nH]c2c1,174 to 176 °C
5,CC(C)C(=O)c1ccc(N2CCN(C)CC2)cc1,74 to 76 °C
